pKi: −log10 of the molar value. Blank lines part the entries; values can stand above or below the compound they belong to.
Key:
[1] = target: T1, hFSP1 WT (Homo sapiens, UniProt Q9BRQ8); test: Competition MST against pre-formed complex of hFSP1 WT and FSP1-Tracer; assay type: binding; details: hFSP1 WT 5 µM and FSP1-Tracer 5 nM pre-formed complex
T1 construct: HisSUMO (cleaved yes); made in house; host or cells: E. coli BL21
T1 sequence (Q9BRQ8 1-373): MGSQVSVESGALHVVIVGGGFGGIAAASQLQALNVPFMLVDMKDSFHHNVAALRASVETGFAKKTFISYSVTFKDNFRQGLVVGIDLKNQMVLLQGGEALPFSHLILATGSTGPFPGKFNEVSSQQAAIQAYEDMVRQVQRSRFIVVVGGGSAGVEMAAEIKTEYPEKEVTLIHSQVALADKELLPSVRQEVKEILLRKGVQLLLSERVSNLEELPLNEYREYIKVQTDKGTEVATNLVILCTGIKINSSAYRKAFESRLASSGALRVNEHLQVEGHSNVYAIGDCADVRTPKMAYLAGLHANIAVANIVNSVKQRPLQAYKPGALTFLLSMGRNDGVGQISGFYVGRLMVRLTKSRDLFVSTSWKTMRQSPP
Protocol: FSP1 (human isoform 1, UniProt Q9BRQ8-1) WT (hFSP1 WT) and F360L (hFSP1 F360L) were expressed in E.coli BL21 as HisSUMO fusion protein. Cells were grown in lysogeny broth medium at 18 °C and induced with 0.5 mM isopropyl-β-thiogalactoside at a cell density A600 of 0.6. Cells were collected after overnight expression by centrifugation, resuspended in lysis buffer ([…], 50 mM Tris-HCl pH 8, 1 mM TCEP, 20 mM imidazole, protease inhibitor, DNase) and lysed by sonication. Cell debris was removed by centrifugation (30,000 × g) at 4 °C for 30 min, after which an IMAC purification was performed. Briefly, a HisTrap crude FF (5 mL) column was equilibrated to lysis buffer, lysates were loaded via the sample pump and the column was then washed with 50 mL lysis buffer. During the elution with a gradient to 100% IMAC elution buffer (300 mM NaCl, 50 mM Tris-HCl pH 8, 1 mM TCEP, 400 mM imidazole) over 100 mL, 5 mL fractions were collected. The pooled fractions were dialysed overnight in the presence of SenP2 SUMO protease at a ratio of 40:1 FSP1:SenP2. Afterwards, a reverse IMAC purification was performed on a HisTrap crude FF (5 mL) column. IMAC eluates were analysed by SDS PAGE and concentrated to 15 mL (hFSP1 WT) and 5 mL (hFSP1 F360L), respectively. […] Pure fractions were pooled (C12—D11 for hFSP1 WT and C7—D4 for hFSP1 F360L), analysed by SDS-PAGE (Supplementary Fig. 4) and concentrated to 5.8 mL at 285.9 µM (hFSP1 WT) and 1.2 mL at 269.5 µM (FSP1 F360L), flash frozen in liquid N2 and stored at −80 °C.
An MST buffer consisting of 1× phosphate-buffered saline (PBS; 137 mM NaCl, 2.7 mM KCl, 10 mM Na2HPO4, 1.8 mM KH2PO4, pH 7.4) with 2 mM reduced L-Glutathione (GSH, Sigma Aldrich, product number G4251) and 0.05% (v/v) Tween 20 (ITW Reagents, molecular biology grade, product number A4974) was used for all MST measurements. […] KD values were determined by applying a Hill-fit to a plot of Fnorm vs. hFSP1 WT/F360L concentration. […]

[2] = test system: Pfa1 Gpx4−/− cell line overexpressing hFSP1, mFSP1 and hFSP1 F360L mutants; test: BODIPY 581/591 C11 oxidation (flow cytometry); assay type: cell-based, murine; details: iFSP1 3 µM for 3 h with Lip-1; all conditions
Protocol: In total, 150,000 cells per well were seeded on 6-well dishes one day prior to the experiment. […] Cells were incubated with C11-BODIPY (581/591) (1 μM) for 30 min at 37 °C before they were harvested by trypsinisation. Subsequently, cells were resuspended in 500 μL of fresh PBS (DPBS, Gibco) and analyzed using a 488-nm laser excitation laser and fluorescence recorded on a (FACS Canto II, BD Biosciences). Data was collected from the FL1 detector (C11-BODIPY, Invitrogen) with a 502LP and 530/30 BP filter. At least 20,000 events were analyzed per sample. Data was analyzed using FlowJo Software version 10.8.1.

[3] = test system: Pfa1 Gpx4−/− cells overexpressing human FSP1 (hFSP1); test: Cell viability (Alamar blue), dose-response toxicity in Gpx4-knockout cells expressing hFSP1; assay type: cell-based, murine; details: cells treated with iFSP1
Protocol: (§1) Cell Lines. 4-hydroxytamoxifen (TAM)-inducible Gpx4^−/− murine immortalized fibroblasts (Pfa1) were reported previously. These cells harbor two loxP-flanked Gpx4 alleles and stably express TAM inducible Cre recombinase allowing the genetic deletion of Gpx4 at will. For all experiments using Gpx4^−/− the well were treated with 4-hydroxitamoxifen (TAM) 1 µM. All cells were cultured with were cultured in DMEM-high glucose (4.5 g glucose/L) with 10% fetal bovine serum (FBS), Glutamax, and 1% penicillin/streptomycin (Gibco, Thermo Fischer) at 37 °C with 5% CO2 and verified to be negative for mycoplasma.
(§2) Cell viability assays. Alamar Blue method: Cells were seeded on 96-well plates (2000 cells per well) and treated with the compounds RSL3, iFSP1 and (liproxstatin-1) after plating. Cell viability was assessed 48 h (unless stated otherwise) after treatment using Alamar Blue as an indicator of viable cells. Alamar blue solution was made by dissolving of 1 g resazurin sodium salt (Thermo Fischer) in 200 mL sterile PBS and sterile filtrated through a 0.22 µm filter. Stock solutions were stored at 4 °C. The working solution was made freshly by adding 200 µL of the stock solution to 25 mL growth media. After 2–4 h incubation time, viability was estimated by measuring the fluorescence using a 540/35 excitation filter and a 590/20 emission on a Spark® microplate reader (Tecan, Zürich, Switzerland).
Codon-optimized Mus musculus (mouse) FSP1 (NP_001034283.1) and Homo sapiens (Human) FSP1 (NP_001185625.1) were synthesized by IDT as gBlocks^TM and subcloned into p442-IRES-blast vectors. The chimera constructs were generated based on the pairwise alignment between the gene of Homo sapiens (Human) and the Mus musculus (Mouse), all the chimeric constructs contain the murine isoform with one region exchanged to the human isoform. […]

[4] = test system: Pfa1 Gpx4−/− overexpressing hFSP1 WT, hFSP1 F360L and mFSP1 WT; test: Cell viability response to N-myristoyltransferase inhibitor IMP-1088; assay type: cell-based, murine
Protocol: as §1, §2

[5] = test system: Pfa1 cells overexpressing the mock, hFSP1 WT, hFSP1 F360L and mFSP1 WT; test: Cell viability response to GPX4 inhibitor RSL3; assay type: cell-based, murine; details: Alamar blue viability
Protocol: as §1, §2

- pKi [1]: 6.34
SMILES: NC(=O)C1=CN(C2OC(COP(=O)(O)OP(=O)(O)OCC3OC(n4cnc5c(N)ncnc54)C(O)C3O)C(O)C2O)C=CC1 (centres unmarked) [NADH]

SMILES: Clc1cccc(CN=C2Nc3ccccc3NC23CCNCC3)c1 [Lip-1, liproxstatin-1]
- rescue of the iFSP1-induced increase in BODIPY-C11 signal [2]: could be rescued
- rescue from iFSP1-induced ferroptosis [3]: rescuing the cells

SMILES: Cc1nn(C)c(C)c1CCOc1c(-c2ccc3c(c2)c(CN(C)C)nn3C)ccc(F)c1F [IMP-1088]
- ferroptosis induction across FSP1 variants [4]: all mutants undergo ferroptosis similarly

SMILES: COC(=O)c1ccc([C@@H]2c3[nH]c4ccccc4c3C[C@@H](C(=O)OC)N2C(=O)CCl)cc1 [RSL3, (1 S,3 R)-RSL3]
- difference in response to the GPX4 inhibitor between cells overexpressing the FSP1 variants [5]: no difference in response
